Measured values: US10632101B2, “Methods and compositions for supporting endogenous systems related to life span” (USANA Health Sciences, Inc., priority 2016, dated 2020)

Experiments:
human PPARα = target: T1, human PPARα (Homo sapiens, UniProt Q07869); assay: PPARα reporter cell assay, agonist mode; assay type: cell-based
T1 construct: expressed in transfected cells; host or cells: CHO
T1 sequence (Q07869 239-466 limits assumed): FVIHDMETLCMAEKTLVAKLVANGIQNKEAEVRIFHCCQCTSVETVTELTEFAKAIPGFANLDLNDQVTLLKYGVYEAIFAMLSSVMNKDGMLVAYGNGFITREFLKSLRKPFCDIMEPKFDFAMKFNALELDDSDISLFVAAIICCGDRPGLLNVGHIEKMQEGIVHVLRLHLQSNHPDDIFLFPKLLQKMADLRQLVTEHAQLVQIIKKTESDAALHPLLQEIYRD

human PPARδ = target: T2, human PPARδ (Homo sapiens, UniProt Q03181); assay: PPARδ reporter cell assay, agonist mode; assay type: cell-based
T2 construct: expressed in transfected cells; host or cells: CHO
T2 sequence (Q03181 211-439 limits assumed): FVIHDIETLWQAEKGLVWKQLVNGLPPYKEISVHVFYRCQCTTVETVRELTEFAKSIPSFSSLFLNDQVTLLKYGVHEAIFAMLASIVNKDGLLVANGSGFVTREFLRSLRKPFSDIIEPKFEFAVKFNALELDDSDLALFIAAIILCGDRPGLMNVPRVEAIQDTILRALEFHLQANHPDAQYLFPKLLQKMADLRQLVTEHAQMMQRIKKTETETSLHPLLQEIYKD

human PPARγ = target: T3, human PPARγ (Homo sapiens, UniProt P37231); assay: PPARγ reporter cell assay, agonist mode; assay type: cell-based
T3 construct: expressed in transfected cells; host or cells: CHO
T3 sequence (P37231 238-503 limits assumed): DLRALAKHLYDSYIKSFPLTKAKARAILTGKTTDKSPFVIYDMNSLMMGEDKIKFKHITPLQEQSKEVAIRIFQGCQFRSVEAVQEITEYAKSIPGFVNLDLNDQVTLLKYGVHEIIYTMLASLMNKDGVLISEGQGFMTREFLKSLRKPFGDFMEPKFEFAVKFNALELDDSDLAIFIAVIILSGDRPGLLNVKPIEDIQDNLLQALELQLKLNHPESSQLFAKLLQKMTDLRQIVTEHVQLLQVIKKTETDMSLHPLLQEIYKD

human NF-κB = assay: NF-κB reporter cell assay, antagonist mode; assay type: cell-based
[1] = test system: NF-κB reporter cells (HEK293); assay: Live cell multiplex read-out in the NF-κB antagonist assay; assay type: cell-based, human
Experimental: Various receptor assays were carried out for test compounds corresponding to ingredients of the nutritional supplement composition. In general, the receptor assays utilized reporter cells that either expressed a native receptor or a receptor hybrid. The receptor hybrids were engineered so that the native N-terminal DNA binding domain (DBD) was replaced with a yeast Gal4 DBD. The reporter cells expressed a hybrid receptor comprising either the native receptor (Nrf2 and NF-κB) or the N-terminal Gal4 DNA binding domain fused to the ligand binding domain of the specific human nuclear receptor (PPARα, PPARδ, and PPARγ). The reporter gene (e.g., firefly luciferase) was functionally linked to either upstream receptor-specific response elements (GRE) or the Gal4 upstream activation sequence (UAS). A summary of the receptors, the reporter cells used for each particular receptor assay, and the reference compounds used to confirm performance of the receptor assays are indicated below in Table 4.
A vehicle control was prepared. […] After incubation, fluorescence was measured to determine a relative number of live cells per test well.

C. elegans strain CB5586 = assay: Phenotypic lifespan screening in C. elegans; assay type: in vivo; details: for effect on chronological lifespan: 0.1 and 10 mg/ml tested
Experimental: Dilutions of the test formulations were applied to individual populations of C. elegans and the lifespan of each population was monitored. Any changes in the lifespan of an individual population compared to a control population were recorded and correlated to the respective test formulation (N356 or N357) and the respective dilution (0.1 mg/ml, 1 mg/ml, and 10 mg/ml).
The N256 and N357 formulations were each prepared as individual 100 mg/ml stock solutions in dimethyl sulfoxide (DMSO). Serial dilutions of each stock solution were then prepared at 0.1 mg/ml, 1 mg/ml, and 10 mg/ml in DMSO. Control solutions of DMSO only were also prepared. Synchronous aged adult populations of C. elegans strain CB5586 worms were prepared. The CB5586 strain comprises a pharyngeal GFP (green fluorescent protein) tag and a mutation in the bus-5 gene. The pharyngeal GFP tag allows for fluorescent images of the worm populations to be taken. The mutation in the bus-5 gene causes the loss of normal cuticle antigens that permits the cuticle of the worms to become permeable to the test formulations and allow direct uptake of the test formulations to avoid interaction of the test formulations with protective mechanisms of the gut channel. Each serial dilution of each test formulation was added to a separate population of the prepared worms. The control solutions were also added to separate populations of the prepared worms. The populations of the prepared worms were then maintained on standard nematode growth media (NGM) agar plates at 20° C. with sufficient food (Escherichia coli strain OP-50).
Each worm population was then monitored by fluorescent imaging to determine the number of living and dead worms as a function of time. The fluorescent imaging was analyzed by software that recognized and counted worms based on their fluorescent intensity compared to background fluorescence. […] The ability to distinguish between living and dead worms allowed the number of living worms and a cumulative number of dead worms to be monitored against time. Worm populations from a selection of fluorescent images were manually checked to verify that the software had accurately counted the number of living and dead worms.
The counts of the living and dead worms as a function of time were then analyzed for each of the worm populations and used to prepare Kaplan-Meier survival curves and associated statistics for each of the worm populations. […] The median lifespan is shown as the length of time after the last mitotic division that 50% of the test population remains viable when compared to the control population. The maximum lifespan extension is shown as the length of time after the last mitotic division that 5% of the test population remains viable when compared to the control population.
The counts of the living and dead worms as a function of time and the Kaplan-Meier survival curves and the associated statistics were then analyzed for each of the worm populations. The analysis included determining mean and median lifespan. The analysis included a non-parametric test, the Log-Rank test, which compares two survival functions for the overall lifespan assay and provides a reliable p-value summarizing the whole experiment. The analysis also included Fisher's Exact Test that calculated the significance of survival function comparisons at multiple specific time points throughout the experiment, rather than for the overall lifespan. The results of the analysis are shown below in Tables 10-17.
Phenotypic screening was carried out as described in EXAMPLE 2 for various individual compounds of the N357 formulation. […] Alpha lipoic acid was sourced from PureBulk™ USA as a racemic mix of R and S stereoisomers and was assigned a sample number of N198. Hesperidin was sourced from Sigma Aldrich at ≥80% purity and was assigned a sample number of N347. […]

Nrf2 = Nrf2 signaling fluorescent reporter assay in human retinal epithelial cell line; assay type: cell-based
Experimental: The assays were carried out with a fluorescent reporter assay that utilized a human retinal epithelial cell line. The assays also included validation by RT-PCR (reverse transcription polymerase chain reaction) of Nrf2 target genes. The human retinal epithelial cell line was purchased from ATCC (American Type Cell Culture, Manassas, Va.) and was configured to function as a fluorescent reporter assay. Test solutions of each of the alpha lipoic acid, resveratrol, curcumin, EGCG, Olivol®, rutin, quercetin, and hesperetin were prepared by serial dilution. Control solutions were also prepared. Positive control solutions of a known Nrf2 agonist, L-sulphoraphane was also prepared. Each test solution was then assayed for Nrf2 signaling activity using the fluorescent reporter assay and compared to control assays. The positive control solutions were also tested.

mTOR = target: T4, mTOR (Homo sapiens, UniProt P42345); details: cited from earlier work
T4 construct: host or cells: isolated cells in culture (not specified)

SMILES: O=C(O)CCCCC1CCSS1 (racemic) [Alpha lipoic acid, alpha lipoic acid]
- PPARα Fold-Activation (human PPARα; 1.42 μg/ml): 1.4
- PPARα Fold-Activation (human PPARα; 4.25 μg/ml): 1.3
- PPARα Fold-Activation (human PPARα; 12.7 μg/ml): 1.2
- PPARα Fold-Activation (human PPARα; 38.23 μg/ml): 1.5
- PPARα Fold-Activation (human PPARα; 114.70 μg/ml): 2.3
- PPARδ Fold-Activation (human PPARδ; 1.42 μg/ml): 1.5
- PPARδ Fold-Activation (human PPARδ; 4.25 μg/ml): 1.1
- PPARδ Fold-Activation (human PPARδ; 12.7 μg/ml): 0.80
- PPARδ Fold-Activation (human PPARδ; 38.23 μg/ml): 0.52
- PPARδ Fold-Activation (human PPARδ; 114.70 μg/ml): 0.29
- PPARγ Fold-Activation (human PPARγ; 1.42 μg/ml): 1.1
- PPARγ Fold-Activation (human PPARγ; 4.25 μg/ml): 1.1
- PPARγ Fold-Activation (human PPARγ; 12.7 μg/ml): 1.3
- PPARγ Fold-Activation (human PPARγ; 38.23 μg/ml): 1.4
- PPARγ Fold-Activation (human PPARγ; 114.70 μg/ml): 3.4
- NF-κB % Inhibition (human NF-κB; 4.25 μg/ml): −0.70%
- NF-κB % Live Cell ([1]; 1.42 μg/ml): 100%
- effect on chronological lifespan (C. elegans strain CB5586): significant positive and dose-dependent increase of chronological lifespan
- activation of Nrf2 (Nrf2; 100 and 30 μM): demonstrated activation of Nrf2

SMILES: Oc1ccc(/C=C/c2cc(O)cc(O)c2)cc1 [Resveratrol, 3,5,4′-trihydroxy-trans-stilbene]
- NF-κB % Inhibition (human NF-κB; 2.54 μg/ml): −50%
- NF-κB % Live Cell ([1]; 0.28 μg/ml (resveratrol series)): 100%
- NF-κB % Live Cell ([1]; 0.85 μg/ml): 100%
- Statistically Significant Result (C. elegans strain CB5586; 0.1 mg/ml compared to DMSO control): No statistical difference
- effect on chronological lifespan (C. elegans strain CB5586): significant positive and dose-dependent increase of chronological lifespan
- activation of Nrf2 (Nrf2; 10 μM and 1): demonstrated activation of Nrf2
- concentration with more activation of Nrf2 (Nrf2; of 10 μM and 1): 10 µM
- mTOR inhibition (mTOR; applied to isolated cells in culture): inhibit mTOR
- mTOR inhibition, mitophagy and mitochondrial turnover (mTOR): inhibit mTOR, up-regulate mitophagy, and increase the rate of mitochondrial turnover
